For the test, the target named is T1, HIV-integrase (recombinant integrase) (Human immunodeficiency virus type 1 group M subtype B, UniProt P12497).
T1 construct: Recombinant integrase (0.26 ng) was incubated with the beads
Nature of the test: HIV-Integrase Inhibition Activity (SPA bead strand-transfer assay). Format: biochemical. Conditions: biotin labeled substrate DNA on SPA beads, P33 labeled target DNA, read-out: Activity (IC50 against HIV-integrase). On the procedure:
HIV-Integrase Inhibition Activity. To evaluate in-vitro activity against HIV-integrase, 5 pmole of biotin labeled substrate DNA was bound to 100 μg of Streptavidin coated PVT SPA beads (Amersham Pharmacia Biotech). Recombinant integrase (0.26 ng) was incubated with the beads for 90 min at 37° C. Unbound enzyme was removed by washing the complex followed by addition of inhibitors and 0.1 fmol of P33 labeled target DNA. The reaction was stopped by adding EDTA to a final concentration of 10 mM. Samples were counted in TopCountNXT (Packard) and the CPM was used as a measure of integration. The reaction condition was as described in A. Engelman and R. Craigie, J. Virol. 69, 5908-5911 (1995). The sequences of substrate and target DNA were described in Nucleic Acid Research 22, 1121-1122 (1994). Activity equal to A refers to a compound having IC50=0.002 to 0.10 μM while B and C denote compounds having IC50=0.1 to 1.0 μM and IC50≧1.0 μM respectively.

SMILES strings stand for the structures.

As for `Cc1ncn(-c2cc(F)ccc2CNC(=O)c2nc3n(c(=O)c2O)CCS(=O)(=O)C32CCCC2)n1` [Example 14, Spiro[cyclopentane-1,9′(4′H)-pyrimido[2,1-c][1,4]thiazine]-2′-carboxamide, N-[[4-fluoro-2-(3-methyl-1H-1,2,4-triazol-1-yl)phenyl]methyl]-6′,7′-dihydro-3′-hydroxy-4′-oxo-, 8′,8′-dioxide], the IC50 was in the range of 2 to 100 nM.
The result for `CC1(C)c2nc(C(=O)NCc3ccc(F)cc3)c(O)c(=O)n2CCCS1(=O)=O` [Example 23, 6H-Pyrimido[2,1-c][1,4]thiazepine-2-carboxamide, N-[(4-fluorophenyl)methyl]-4,7,8,10-tetrahydro-3-hydroxy-10,10-dimethyl-4-oxo-, 9,9-dioxide] reads 2 to 100 nM.
In the case of `O=C(NCc1ccc(F)cc1-n1cncn1)c1nc2n(c(=O)c1O)CCS(=O)(=O)C21CCOCC1` [Example 17, Spiro[4H-pyran-4,9′(4′H)-pyrimido[2,1-c][1,4]thiazine]-2′-carboxamide, N-[[4-fluoro-2-(1H-1,2,4-triazol-1-yl)phenyl]methyl]-2,3,5,6,6′,7′-hexahydro-3′-hydroxy-4′-oxo-, 8′,8′-dioxide] it was 2 to 100 nM.
The result for `Cc1ncnn1-c1cc(F)ccc1CNC(=O)c1nc2n(c(=O)c1O)CCCS(=O)(=O)C21CCOCC1` [Example 29, Spiro[4H-pyran-4,10′(4′H)-[6H]pyrimido[2,1-c][1,4]thiazepine]-2′-carboxamide, N-[[4-fluoro-2-(5-methyl-1H-1,2,4-triazol-1-yl)phenyl]methyl]-2,3,5,6,7′,8′-hexahydro-3′-hydroxy-4′-oxo-, 9′,9′-dioxide] reads 2 to 100 nM; that for `CC1SCCCn2c1nc(C(=O)NCc1ccc(F)cc1)c(O)c2=O` (stereo not shown) [Example 20, N-(4-Fluorobenzyl)-3-hydroxy-10-methyl-4-oxo-6,7,8,10-tetrahydro-4H-pyrimido[2,1-c][1,4]thiazepine-2-carboxamide], 2 to 100 nM.
Turning to `CC1(C)c2nc(C(=O)NCc3ccc(F)cc3)c(O)c(=O)n2CCS1(=O)=O` [Example 4, Pyrimido[2,1-c][1,4]thiazine-2-carboxamide, N-[(4-fluorophenyl)methyl]-4,6,7,9-tetrahydro-3-hydroxy-9,9-dimethyl-4-oxo-, 8,8-dioxide], the IC50 lay in the range of 2 to 100 nM.
For `O=C(NCc1ccc(F)cc1)c1nc2n(c(=O)c1O)CCCS(=O)(=O)C21CC1` [Example 24, Spiro[cyclopropane-1,10′(4′H)-[6H]pyrimido[2,1-c][1,4]thiazepine]-2′-carboxamide, N-[(4-fluorophenyl)methyl]-7′,8′-dihydro-3′-hydroxy-4′-oxo-, 9′,9′-dioxide], the half-maximal inhibitory concentration (IC50) is 2 to 100 nM.
In the case of `O=C(NCc1ccc(F)cc1)c1nc2n(c(=O)c1O)CCS(=O)(=O)C2` [Example 2, Pyrimido[2,1-c][1,4]thiazine-2-carboxamide, N-[(4-fluorophenyl)methyl]-4,6,7,9-tetrahydro-3-hydroxy-4-oxo-, 8,8-dioxide], the IC50 was 100 to 1000 nM.
The result for `O=C(NCc1ccc(F)cc1)c1nc2n(c(=O)c1O)CCCS(=O)(=O)C21CCOCC1` [Example 26, Spiro[4H-pyran-4,10′(4′H)-[6H]pyrimido[2,1-c][1,4]thiazepine]-2′-carboxamide, N-[(4-fluorophenyl)methyl]-2,3,5,6,7′,8′-hexahydro-3′-hydroxy-4′-oxo-, 9′,9′-dioxide] reads 2 to 100 nM; that for `O=C(NCc1ccc(F)cc1)c1nc2n(c(=O)c1O)CCSC2` [Example 1, N-(4-fluorobenzyl)-3-hydroxy-4-oxo-4,6,7,9-tetrahydropyrimido[2,1-c][1,4]thiazine-2-carboxamide], 2 to 100 nM.

In general, IC50 refers to the concentration at which inhibition is half-maximal.

These data come from patent US7897592B2, “HIV integrase inhibitors” (priority 2005, dated 2011).
